Tests used:
Icmt−/− MEF = assay: Icmt-dependent growth inhibition, Icmt−/− MEF; assay type: cell-based, mouse; conditions: up to 100 μM
Description: Oncrasin and Oncrasin Analogs. Chemically, Oncrasin-1 has the same core structure as indole-3-carbinol, a naturally occurring constituent of many plant foods that has been tested for the prevention and treatment of cancer (Brignall, 2001; Kelloff et al., 1996; Chinni et al., 2001). Oncrasin-1 also has structural similarity to sulindac (Taylor et al., 2000; Sun et al., 2002) and lonidamine (Ravagnan et al., 1999; Papaldo et al., 2003), both of which have been evaluated preclinically and clinically for treatment of cancers. […] Oncrasin compounds also bear a indole core structure as the small-molecule inhibitor of isoprenylcysteine carboxylmethyltransferase (Icmt), 2-[5-(3-methylphenyl)-1-octyl-1H-indol-3-yl]acetamide (cysmethynil), which also induces antitumor activity in Ras gene mutant cancer cells (Winter-Vann et al., 2005). […] Both wild-type MEF and Icmt−/− MEF (Bergo et al., 2004) (kindly provided by Dr. S G Young at the University of California, San Francisco) were resistant to Oncrasin-1.

Hey = assay: Cell viability, Hey ovary cancer cells; assay type: cell-based
Ovcar443 = assay: Cell viability, Ovcar443 ovary cancer cells; assay type: cell-based

O=Cc1cn(Cc2ccc(Cl)cc2)c2ccccc12 [Oncrasin K001, 1H-Indole-3-carboxaldehyde, 1-[(4-chlorophenyl)methyl]-(9CI)]
IC50 (−LogM) (H460 cells; H460, Lung): 6.6 −LogM
concentration that effectively kills H460 cells (H460 cells; K-ras mutant lung cancer cells): 1 µM
IC50 in H460 cells (H460 cells; Table 1, value is the negative log10 of mol/L): 6.6
effect on H460 cells (H460 cells; lung cancer cell line): highly effective
IC50 (H460 cells; read-out: IC50, H460 cells, K-Ras Q61H): 250 nM
growth inhibition, Icmt−/− MEF (Icmt−/− MEF): resistant
IC50 (−LogM) (Hey): 4.6 −LogM
IC50 (−LogM) (Ovcar443): 4.5 −LogM
